Values joined by “and” are separate entries in the source; they are usually repeats but may differ in a detail not shown here. Equal values may be shown once.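 All cell lines were grown in 96-well plates and treated with compound for 48 hours. Abbreviation: GI50, concentration required for 50% inhibition of growth. TGI is the concentration that stops growth completely.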
Legend:
Assay in all cases: growth of human tumour cells (NCI), 48 h
[1] = tested on: COLO 205 colon
[2] = tested on: RPMI-8226 leukemia
[3] = tested on: CCRF-CEM leukemia
[4] = tested on: NCI-H226 lung
[5] = tested on: HOP-92 NSCLC
[6] = tested on: T-47D breast
[7] = tested on: RXF 393 renal
[8] = tested on: MDA-MB-231 breast
[9] = tested on: HCT-116 colon
[10] = tested on: HCT-15 colon

Structure (SMILES) | GI50 [1] | TGI [1] | GI50 [2] | TGI [2] | GI50 [3] | TGI [3] | GI50 [4] | TGI [4] | GI50 [5] | TGI [5] | GI50 [6] | TGI [6] | GI50 [7] | TGI [7] | GI50 [8] | TGI [8] | GI50 [9] | TGI [9] | GI50 [10] | TGI [10]
O=C(NO)C(O)C(O)C(O)C(O)CO (centres undefined) | > 100 µM and 51.5 µM | > 100 µM | > 100 µM | > 100 µM | 50.6 µM | > 100 µM | > 71.5 µM and 50.4 µM | > 100 µM | > 100 µM | > 100 µM | > 100 µM | > 100 µM | > 100 µM | > 100 µM | > 100 µM and 58.8 µM | > 100 µM | > 100 µM and 27.1 µM | > 100 µM and 73.5 µM | > 100 µM | > 100 µM
O=[N+]([O-])O.[NH-]C1CCCCC1[NH-].[NH-]C1CCCCC1[NH-].[NH-]C1CCCCC1[NH-].[OH-].[OH-].[OH-].[Pt+4].[Pt+4].[Pt+4] (centres undefined) | 0.631 µM | 27.9 µM | 0.0311 µM | > 24.2 µM | 0.193 µM | 19.2 µM | 1.37 µM | 27.5 µM | 8.21 µM | > 61.2 µM | 1.08 µM | > 83.9 µM | 1.2 µM | 17.3 µM | 4.01 µM | > 64.4 µM | 0.0709 µM | – | 0.223 µM | > 43.5 µM
CCSc1nc(N)c2cnn(C)c2n1 | 29.9 µM | > 100 µM | 37.5 µM | > 100 µM | 42.3 µM | > 100 µM | 27.4 µM | 69.2 µM | 77.4 µM | > 100 µM | 0.0485 µM | > 100 µM | 36.2 µM | > 100 µM | 25.1 µM | 71 µM | 28.9 µM | > 100 µM | 32 µM | > 100 µM
COC(=O)C1=C(O)C(C(=O)OC)[C@@]2(O)[C@@H](C(=O)OC)C(c3ccc(OC(=O)C(CC(C)C)NC(C)=O)cc3)C[C@@H]1[C@@H]2C(=O)OC (some centres undefined) | 46.6 µM | > 100 µM | > 100 µM | > 100 µM | 41.4 µM | > 100 µM | 43 µM | > 100 µM | 39.5 µM | > 100 µM | 37.8 µM | > 100 µM | > 100 µM | > 100 µM | 30 µM | > 100 µM | 29.3 µM | > 100 µM | 31.9 µM | > 100 µM
CCNC(=O)Oc1ccc(/C(=C(\C)c2ccc(Cl)cc2)c2ccc(OCCN3CCCCC3)cc2)cc1 | 2.1 µM | 4.6 µM | 2.31 µM | 5.27 µM | 3.26 µM | 11.8 µM | 14.4 µM | 36.7 µM | 2.7 µM | 9.25 µM | 1.34 µM | 10.2 µM | 2.19 µM | 8.77 µM | 3.55 µM | 11.5 µM | 1.69 µM | 3.22 µM | 2.49 µM | 7.72 µM
Cc1ccc(OCCCCCCNCCO)c(C)c1 | 10 µM | 26.3 µM | 15.5 µM | 37.9 µM | 15.6 µM | 36.7 µM | 15.1 µM | 32.9 µM | 2.36 µM | 13.4 µM | 11.7 µM | 30.2 µM | 6.53 µM | 20.8 µM | 9.11 µM | 25.5 µM | 14.2 µM | 31.6 µM | 15.8 µM | 33.8 µM
OCCCCC#Cc1ccccc1C#Cc1cnccn1 | 32 µM | > 100 µM | 26.7 µM | > 100 µM | 26.9 µM | > 100 µM | 40 µM | > 100 µM | 19.5 µM | 88.4 µM | 27.5 µM | > 100 µM | 15 µM | 54.2 µM | 18 µM | 54.9 µM | 42.6 µM | > 100 µM | 33.3 µM | > 100 µM
C#Cc1ccc(-n2c(/C=C/c3cc(OC)c(OC)c(OC)c3)nc3ncccc3c2=O)cc1 | 3.19 µM | 11.9 µM | 3.6 µM | > 100 µM | 4.9 µM | > 100 µM | 12.9 µM | > 100 µM | 2.31 µM | 7.72 µM | 5.85 µM | > 100 µM | 7.04 µM | > 100 µM | 5.53 µM | > 100 µM | 5.17 µM | > 100 µM | 5.58 µM | > 100 µM
O=c1[nH]c(-c2ccccn2)nc2sc3c(c12)CCCCCC3 | 5.85 µM | > 100 µM | 3.63 µM | > 100 µM | 0.905 µM | > 100 µM | > 100 µM | > 100 µM | 3.9 µM | > 100 µM | 5.54 µM | > 100 µM | 7.42 µM | > 100 µM | 8.76 µM | > 100 µM | 1.37 µM | > 100 µM | 2.35 µM | > 100 µM
O=c1[nH]c2cc(O)ccc2n2cc3c(F)cccc3c12 | 7.3 µM | > 100 µM | 4.38 µM | > 100 µM | 2.68 µM | > 100 µM | 2.04 µM | > 100 µM | 3.41 µM | > 100 µM | > 100 µM | > 100 µM | 0.969 µM | > 100 µM | 6.42 µM | > 100 µM | 0.881 µM | > 100 µM | 0.536 µM | > 100 µM
